From the NIST ThermoML archive (doi:10.1021/je0496140)
± gives the expanded uncertainty stated by the source.

Tests used:
[1] = xn = mol fraction of the nth substance listed; settings: 101.33 kPa, Liquid
[2] = 101.33 kPa, Liquid

CCCCCl [1-chlorobutane] + CCCCO
[1]
Settings | mass density [kg/m3] | viscosity [mPa·s]
288.15 K, x2 = 0.062 | 886.96 ± 0.37 | –
288.15 K, x2 = 0.0949 | – | 0.509 ± 0.007
288.15 K, x2 = 0.1027 | 883.98 ± 0.37 | –
288.15 K, x2 = 0.1383 | 881.38 ± 0.37 | –
288.15 K, x2 = 0.1964 | – | 0.57 ± 0.008
288.15 K, x2 = 0.2032 | 876.67 ± 0.37 | –
288.15 K, x2 = 0.2597 | 872.57 ± 0.37 | –
288.15 K, x2 = 0.2859 | 870.67 ± 0.37 | –
288.15 K, x2 = 0.2961 | – | 0.655 ± 0.009
288.15 K, x2 = 0.3764 | 864.06 ± 0.38 | –
288.15 K, x2 = 0.3949 | – | 0.774 ± 0.01
288.15 K, x2 = 0.3967 | 862.58 ± 0.38 | –
288.15 K, x2 = 0.4541 | 858.3 ± 0.38 | –
288.15 K, x2 = 0.4822 | 856.17 ± 0.38 | –
288.15 K, x2 = 0.4941 | – | 0.94 ± 0.012
288.15 K, x2 = 0.5076 | 854.25 ± 0.38 | –
288.15 K, x2 = 0.5466 | 851.25 ± 0.39 | –
288.15 K, x2 = 0.5818 | 848.53 ± 0.39 | –
288.15 K, x2 = 0.5915 | – | 1.175 ± 0.014
288.15 K, x2 = 0.6332 | 844.49 ± 0.39 | –
288.15 K, x2 = 0.6747 | 841.19 ± 0.39 | –
288.15 K, x2 = 0.6954 | – | 1.503 ± 0.018
288.15 K, x2 = 0.7342 | 836.4 ± 0.4 | –
288.15 K, x2 = 0.7698 | 833.49 ± 0.4 | –
288.15 K, x2 = 0.794 | – | 1.934 ± 0.023
288.15 K, x2 = 0.8509 | 826.62 ± 0.41 | –
288.15 K, x2 = 0.892 | – | 2.529 ± 0.029
288.15 K, x2 = 0.9022 | 822.13 ± 0.41 | –
288.15 K, x2 = 0.9582 | 817.04 ± 0.42 | –
298.15 K, x2 = 0.0949 | – | 0.452 ± 0.007
298.15 K, x2 = 0.1964 | – | 0.504 ± 0.007
298.15 K, x2 = 0.2961 | – | 0.57 ± 0.008
298.15 K, x2 = 0.3949 | – | 0.661 ± 0.009
298.15 K, x2 = 0.4941 | – | 0.788 ± 0.01
298.15 K, x2 = 0.5915 | – | 0.955 ± 0.012
298.15 K, x2 = 0.6954 | – | 1.204 ± 0.015
298.15 K, x2 = 0.794 | – | 1.525 ± 0.018
298.15 K, x2 = 0.892 | – | 1.955 ± 0.023
308.15 K, x2 = 0.0949 | – | 0.407 ± 0.006
308.15 K, x2 = 0.1056 | 861.88 ± 0.4 | –
308.15 K, x2 = 0.1964 | – | 0.448 ± 0.006
308.15 K, x2 = 0.1979 | 855.62 ± 0.4 | –
308.15 K, x2 = 0.2842 | 849.82 ± 0.4 | –
308.15 K, x2 = 0.2961 | – | 0.501 ± 0.007
308.15 K, x2 = 0.3908 | 842.67 ± 0.4 | –
308.15 K, x2 = 0.3949 | – | 0.576 ± 0.008
308.15 K, x2 = 0.4941 | – | 0.67 ± 0.009
308.15 K, x2 = 0.4964 | 835.5 ± 0.41 | –
308.15 K, x2 = 0.5913 | 828.95 ± 0.41 | –
308.15 K, x2 = 0.5915 | – | 0.797 ± 0.01
308.15 K, x2 = 0.6908 | 821.85 ± 0.42 | –
308.15 K, x2 = 0.6954 | – | 0.984 ± 0.012
308.15 K, x2 = 0.7917 | 814.48 ± 0.43 | –
308.15 K, x2 = 0.794 | – | 1.226 ± 0.015
308.15 K, x2 = 0.892 | – | 1.547 ± 0.018
308.15 K, x2 = 0.9003 | 806.19 ± 0.44 | –
318.15 K, x2 = 0.0612 | 853.78 ± 0.41 | –
318.15 K, x2 = 0.0913 | 851.66 ± 0.41 | –
318.15 K, x2 = 0.0949 | – | 0.367 ± 0.006
318.15 K, x2 = 0.1849 | 845.48 ± 0.41 | –
318.15 K, x2 = 0.1964 | – | 0.401 ± 0.006
318.15 K, x2 = 0.2759 | 839.66 ± 0.41 | –
318.15 K, x2 = 0.2961 | – | 0.444 ± 0.006
318.15 K, x2 = 0.3836 | 832.82 ± 0.42 | –
318.15 K, x2 = 0.3949 | – | 0.503 ± 0.007
318.15 K, x2 = 0.4858 | 826.26 ± 0.42 | –
318.15 K, x2 = 0.4941 | – | 0.577 ± 0.008
318.15 K, x2 = 0.5859 | 819.71 ± 0.43 | –
318.15 K, x2 = 0.5915 | – | 0.674 ± 0.009
318.15 K, x2 = 0.6868 | 812.99 ± 0.43 | –
318.15 K, x2 = 0.6954 | – | 0.816 ± 0.01
318.15 K, x2 = 0.7868 | 806.09 ± 0.44 | –
318.15 K, x2 = 0.794 | – | 0.993 ± 0.012
318.15 K, x2 = 0.8906 | 798.56 ± 0.45 | –
318.15 K, x2 = 0.892 | – | 1.238 ± 0.015

CCCCO [butan-1-ol]
[2]
Settings | mass density [kg/m3] | viscosity [mPa·s]
288.15 K | 813.42 ± 0.43 | 3.346 ± 0.038
298.15 K | 805.4 ± 0.44 | 2.56 ± 0.029
308.15 K | 798.14 ± 0.45 | 1.991 ± 0.023
318.15 K | 790.19 ± 0.47 | 1.569 ± 0.019

CC(C)CO [2-methyl-1-propanol]
[2]
Settings | mass density [kg/m3] | viscosity [mPa·s]
288.15 K | 805.47 ± 0.48 | 4.805 ± 0.055
298.15 K | 797.37 ± 0.49 | 3.435 ± 0.04
308.15 K | 790.1 ± 0.5 | 2.508 ± 0.029
318.15 K | 781.99 ± 0.51 | 1.87 ± 0.022

CCCCCl [1-chlorobutane]
[2]
Settings | mass density [kg/m3] | viscosity [mPa·s]
288.15 K | 891.87 ± 0.37 | 0.477 ± 0.007
298.15 K | 880.18 ± 0.39 | 0.429 ± 0.006
303.15 K | 875.19 ± 0.39 | 0.409 ± 0.006
308.15 K | 869.64 ± 0.4 | 0.39 ± 0.006
313.15 K | 863.94 ± 0.4 | 0.372 ± 0.006
318.15 K | 858.31 ± 0.41 | 0.354 ± 0.005

CCC(C)O (stereo unspecified) [butan-2-ol]
[2]
Settings | mass density [kg/m3] | viscosity [mPa·s]
288.15 K | 810.72 ± 0.59 | 4.509 ± 0.055
298.15 K | 801.82 ± 0.6 | 3.035 ± 0.038
308.15 K | 794.07 ± 0.6 | 2.111 ± 0.027
318.15 K | 785.15 ± 0.61 | 1.523 ± 0.02
